{"source": "paper PMC11677235", "about": "“Heterologous Production, Purification and Characterization of Two Cold-Active β-D-Galactosidases with Transglycosylation Activity from the Psychrotolerant Arctic Bacterium Arthrobacter sp. S3* Isolated from Spitsbergen Island Soil” (International Journal of Molecular Sciences, 2024)", "format_in_all_cases": "biochemical", "key": {"[1]": {"target": "T1, Arthrobacter sp. S3* Bgal42 (GH42 β-D-galactosidase) (Arthrobacter sp. ON14, UniProt D9IU57, P2A/G388S/G665D)", "T1 construct": "gene galB", "T1 sequence (D9IU57 entry or part of it P2A/G388S/G665D)": "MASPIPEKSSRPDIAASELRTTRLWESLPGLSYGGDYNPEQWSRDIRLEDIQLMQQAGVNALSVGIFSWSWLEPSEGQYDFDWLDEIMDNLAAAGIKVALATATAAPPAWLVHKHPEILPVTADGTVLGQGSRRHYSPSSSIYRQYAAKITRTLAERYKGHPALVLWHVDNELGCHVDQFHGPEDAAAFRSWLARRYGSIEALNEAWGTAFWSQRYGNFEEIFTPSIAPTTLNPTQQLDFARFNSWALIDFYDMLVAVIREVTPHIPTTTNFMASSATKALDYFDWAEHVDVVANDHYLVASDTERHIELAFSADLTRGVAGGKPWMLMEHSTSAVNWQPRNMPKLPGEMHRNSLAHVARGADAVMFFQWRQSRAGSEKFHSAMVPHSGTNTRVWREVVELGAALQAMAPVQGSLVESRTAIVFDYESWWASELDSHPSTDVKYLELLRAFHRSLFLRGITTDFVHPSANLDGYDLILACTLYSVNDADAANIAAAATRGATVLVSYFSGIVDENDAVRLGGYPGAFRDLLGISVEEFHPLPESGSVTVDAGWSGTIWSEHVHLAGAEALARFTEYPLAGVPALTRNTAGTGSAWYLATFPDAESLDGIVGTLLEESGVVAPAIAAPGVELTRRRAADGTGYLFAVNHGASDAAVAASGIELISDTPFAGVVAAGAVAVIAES", "assay": "inhibition of ONPG hydrolysis, absorbance […] nm", "settings": "5 mM monosaccharide, 1-5 mM ONPG, 20 mM potassium phosphate, pH 7.0, 30 °C, read-out: apparent Ki"}, "[2]": {"target": "T2, Arthrobacter sp. S3* Bgal2 (GH2 β-D-galactosidase) (Arthrobacter sp. ON14, UniProt D9IU58)", "T2 construct": "gene galA", "T2 sequence (D9IU58 entry or part of it)": "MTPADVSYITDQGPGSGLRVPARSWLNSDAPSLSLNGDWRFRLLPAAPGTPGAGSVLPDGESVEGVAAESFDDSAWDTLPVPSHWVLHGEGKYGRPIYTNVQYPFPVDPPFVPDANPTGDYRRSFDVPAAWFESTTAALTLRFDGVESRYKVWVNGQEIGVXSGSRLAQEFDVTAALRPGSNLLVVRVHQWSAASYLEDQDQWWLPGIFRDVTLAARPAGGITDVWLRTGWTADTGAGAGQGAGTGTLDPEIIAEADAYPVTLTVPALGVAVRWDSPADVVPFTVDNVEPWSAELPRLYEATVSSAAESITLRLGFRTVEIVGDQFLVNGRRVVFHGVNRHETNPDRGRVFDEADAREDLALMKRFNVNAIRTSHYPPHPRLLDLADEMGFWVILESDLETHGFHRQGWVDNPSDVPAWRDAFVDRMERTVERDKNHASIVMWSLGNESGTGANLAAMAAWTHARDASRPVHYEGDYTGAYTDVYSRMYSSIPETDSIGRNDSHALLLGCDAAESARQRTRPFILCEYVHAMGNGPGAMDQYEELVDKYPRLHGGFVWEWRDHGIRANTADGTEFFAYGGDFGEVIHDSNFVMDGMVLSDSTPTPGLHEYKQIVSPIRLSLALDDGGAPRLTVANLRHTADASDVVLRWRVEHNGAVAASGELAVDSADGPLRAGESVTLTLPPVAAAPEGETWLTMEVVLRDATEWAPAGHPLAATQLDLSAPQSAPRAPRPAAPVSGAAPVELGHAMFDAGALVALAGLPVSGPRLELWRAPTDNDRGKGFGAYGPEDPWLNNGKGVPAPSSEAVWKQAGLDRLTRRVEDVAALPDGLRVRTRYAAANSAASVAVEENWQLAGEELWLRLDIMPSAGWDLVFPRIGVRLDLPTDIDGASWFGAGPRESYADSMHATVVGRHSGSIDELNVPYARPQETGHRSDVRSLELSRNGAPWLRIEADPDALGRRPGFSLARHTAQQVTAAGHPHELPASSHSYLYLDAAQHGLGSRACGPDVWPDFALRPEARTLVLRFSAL", "assay": "o-nitrophenol release, absorbance […] nm, Lineweaver-Burk", "settings": "20 mM potassium phosphate, 50 mM KCl, pH 7.5, 20 °C; read-out: Km (mM) / ONPG", "source_text": "S3* Bgal2 (GH2 β-D-galactosidase)"}, "[3]": {"target": "T2, Arthrobacter sp. S3* Bgal2 (GH2 β-D-galactosidase)", "assay": "glucose release by Glucose (GO) Assay Kit, Lineweaver-Burk", "settings": "read-out: Km (mM) / Lactose; 20 mM potassium phosphate, 50 mM KCl, pH 7.5, 20 °C", "source_text": "glucose release by Glucose (GO) Assay Kit, Lineweaver-Burk on Arthrobacter sp. S3* Bgal2 (GH2 β-D-galactosidase)"}}, "note": "Like-named read-outs stand apart in the source and are kept apart here.", "data": [{"smiles": "OC[C@H]1OC(O)[C@H](O)[C@@H](O)[C@H]1O", "note": "(stereo partly drawn) [D-galactose]", "values": [{"measurement": "Ki", "setting": "[1]; competitive", "value": 2.99, "unit": "mM"}]}, {"smiles": "OC[C@H]1OC(O)[C@H](O)[C@@H](O)[C@@H]1O", "note": "(stereo partly drawn) [D-glucose]", "values": [{"measurement": "Ki", "setting": "[1]; uncompetitive", "value": 6.01, "unit": "mM"}]}, {"smiles": "O=[N+]([O-])c1ccccc1O[C@@H]1O[C@H](CO)[C@H](O)[C@H](O)[C@H]1O", "note": "[ONPG]", "values": [{"measurement": "Km", "setting": "[2]", "value": "0.32 ± 0.07", "unit": "mM"}]}, {"smiles": "OC[C@H]1O[C@@H](O[C@H]2[C@H](O)[C@@H](O)C(O)O[C@@H]2CO)[C@H](O)[C@@H](O)[C@H]1O", "note": "(stereo partly shown) [lactose]", "values": [{"measurement": "Km", "setting": "[3]", "value": "16.7 ± 0.81", "unit": "mM"}]}]}
